US20200017752A1, “Use Of A Composition Containing At Least One Biodegradable Sugar-Amide-Compound In Combination With At Least One Sulfur-Based Synergist For Corrosion Inhibition Of A Metallic Equipment In Oilfield Applications” (Clariant International Ltd., priority 2016, published 2020)

Legend:
[1] = Corrosion test, rotating cylinder electrode (RCE), LPR; conditions: 150° F., 2000 RPM, synthetic brine, 100% CO2, 12 ppm total inhibitor, vs 2 hr baseline
Text: In order to evaluate the corrosion inhibition efficacy of the formulations, two different test methods were employed: rotating cylinder electrode (RCE) tests and high pressure, high temperature (HPHT) autoclave weight loss tests. For all testing, the following standard brine composition was used (as outlined in table 3):
A gas composition of 100% CO2 was used throughout testing.
The metallurgy of the coupons tested was C1018 carbon steel for RCE testing and HPHT autoclave testing. Coupons were polished mechanically using 320 grit silicon-carbide (SiC) paper, 400 grit SiC paper, then 600 grit SIC paper and rinsed with water then acetone prior to testing.
The rotating cylinder electrode (RCE) tests were conducted in Pyrex™ glass reaction kettles that were heated to 150° F. The testing solution was comprised of 900 mL of brine. The electrode rotation rate was set at 2000 RPM, which generated a wall shear stress of 7.0 Pa. Linear polarization resistance (LPR) measurements were made with a Gamry electrochemical measurement system. The working electrode was made of a 1018 carbon steel (CS) cylinder with a surface area of 3.16 cm^2. A Hastelloy C276 electrode was used as a pseudo-reference, and a titanium rod was used as the counter electrode. […] The baseline corrosion rate corresponds to the blank corrosion value. Upon completion of the tests, the electrodes were cleaned in an inhibited acid bath according to ASTM G1 C.3.5, and weighed to 0.1 mg.

Algae = assay: Aquatic toxicity testing, 72 hr Algae EC50; assay type: cell-based
Method: (§1) Firstly the environmental data were determined according to OECD 306 biodegradability and aquatic toxicity testing on the glucamides and the result is outlined in Tables 1 and 2.

[2] = Marine BODIS biodegradation
Method: as §1

SMILES | OECD 306 biodegradation Day 7 (OECD 306 biodegradation) [%] | OECD 306 biodegradation Day 14 (OECD 306 biodegradation) [%] | OECD 306 biodegradation Day 21 (OECD 306 biodegradation) [%] | OECD 306 biodegradation Day 28 (OECD 306 biodegradation) [%] | Protection 2 hr after Cl dose [1] [%] | Protection Final 3 hr [1] [%] | 72 hr Algae EC50, Definitive result (Algae) [µg/mL] | 72 hr Algae EC50, Range-finding result (Algae) [µg/mL] | Marine BODIS biodegradation Day 7 [2] [%] | Marine BODIS biodegradation Day 14 [2] [%] | Marine BODIS biodegradation Day 21 [2] [%] | Marine BODIS biodegradation Day 28 [2] [%]
N.O=C(O)CS [ATG, Ammonium Thioglycolate] | 9 | 20 | 33 | 39 | 71.8 | 91.4 |  |  |  |  |  | 
N.N.O=S(O)(O)=S [ATS, Ammoniumthiosulfate] |  |  |  |  | 75.6 | 91.2 |  |  |  |  |  | 
CCCCCCCCCC(=O)N(C)CC(O)C(O)C(O)C(O)CO (centres unmarked) [Glucamide #1] | 15 | 25 | 33 | 31 | 72.1 | 92.7 | 165.24 | 335.40 |  |  |  | 
CC(C)CCC(C)CCC(C)CC(=O)N(C)CC(O)C(O)C(O)C(O)CO (centres unmarked) [Glucamide #2] |  |  |  |  | 79.1 | 93.8 |  |  |  |  |  | 
CCCCCCCCCC(=O)N(C)CC1OC(CO)C(O)C1O (centres unmarked) [Glucamide #3] |  |  |  |  | 73.4 | 93.5 |  |  |  |  |  | 
CC(C)CCC(C)CCC(C)CC(=O)N(C)CC1OC(CO)C(O)C1O (centres unmarked) [Glucamide #4] |  |  |  |  | 76.0 | 94.3 |  |  |  |  |  | 
CCCCCCCC/C=C\CCCCCCCC(=O)N(C)CC(O)C(O)C(O)C(O)CO (centres unmarked) [Glucamide #5] |  |  |  |  | 75.7 | 94.0 | 4.55 | 6.199 | 23 | 33 | 37 | 42
CCCCCCCC/C=C\CCCCCCCC(=O)N(C)CC1OC(CO)C(O)C1O (centres unmarked) [Glucamide #6] |  |  |  |  | 76.7 | 94.2 |  |  |  |  |  | 
OCCS [MET, Mercaptoethanol] | 5 | 6 | 8 | 17 | 74.4 | 91.4 |  |  |  |  |  | 
CCCCCCCC/C=C\CCCCCCCCN[C@@H](CCSC)C(=O)O [OMet, N-Oleyl-Methionine] | 60 | 60 | 60 | 60 | 77.6 | 92.7 |  |  |  |  |  | 
O=C([O-])c1ccccc1.[Na+] [Reference, sodium benzoate, reference compound] | 78 | 74 | 86 | 68 |  |  |  |  | 66 | 77 | 81 | 83
NC(N)=S [TU, Thiourea] | 19 | 32 | 20 | 55 |  |  |  |  |  |  |  | 
